Measured values: patent US6518315B1, “Medicinal uses of phenylaikanols and derivatives” (The University of Sydney, priority 1997, dated 2003)

Experiments:
[1] = system: capsaicin-sensitive DRG neuronal cells; test: [Ca^2+]i transients in DRG neuronal cells in culture; type: cell-based, rat; conditions: for Peak [Ca^2+]i (Average ± SD): 10 μM applied for 1 min, 2 mM Ca^2+
Excerpt: Effect of Gingerol Analogues Towards Rat Dorsal Root Ganglia
Capsaicin, the pungent component in peppers of the Capsicum genus, family Solanaceae, has the ability to excite a subset of sensory neurons, which include polymodal nociceptors and warm thermoceptors (Fitzgerald, 1983) by opening non-selective cation channels that are permeable to Na^+, K^+, and Ca^2+ (Bevan and Szolcsanyi, 1990). It has been shown that capsaicin evoked a concentration-dependent rise in [Ca^2+]i in cultured dorsal root ganglion neurons. The duration of the elevation of [Ca^2+]i depended on the concentration of capsaicin (Choleswinski, et al., 1993). In this investigation peak [Ca^2+]i transient measurements are used as a model for testing gingerol analogues.
DRG from neonatal (3-5 days old) rat or adult Sprague-Dawley rats were incubated in Hanks CMF saline with 0.05% collagenase and 0.25% trypsin for 25 min at 37° C. Individual cells were obtained by trituration with fire polished Pasteur pipettes of diminishing diameters. Neurones were isolated from the cell suspension in 30% Percoll and then plated on collagen coated coverslips or in 24-well plates, then cultured in neurobasal medium with B27 supplement, 50 ng/ml 2.5 S nerve growth factor, 2 mM 1-glutamine and 100 U/ml penicillin/streptomycin. Cultures were maintained at 37° C. with 5% CO2. 30% Percoll increases the percentage of capsaicin-sensitive DRG neurones up to 70%. For peak [Ca^2+]i transients measurements, cells on coverslips were incubated with 5 μM Fura-2 AM for 30 min at 37° C. The coverslips were then mounted on a chamber attached to a fast sample application perfusion system which allows changing solutions in the second range. Recordings were made on the stage of a Nikon Diaphot inverted microscope fitted with a Nikon 40×Fluo (NA 0.85) DL Ph3 or 40×Fluo (NA 1.3) oil objective. [Ca^2+]i was calculated from dual excitation wavelength (340/380 nm) fluorescence measurements following an intracellular calibration procedure by the Grynkiewicz equation, using MCID M2/M4 v.3.0 (Imaging Res. Inc.) software. Cells were continuously perfused with a solution consisting of 140 mM NaCl, 2 mM CaCl2, 5 mM KCl, 20 mM HEPES, 10 mM glucose, pH 7.4. To study KCl evoked depolarisation, 50 mM NaCl was replaced by equimolar KCl. Cytoplasmic localisation of Fura-2 was tested with the Mn^2+ quenching technique (Dedov and Roufogalis, 1998). All experiments were performed at room temperature (20-23° C.).
Typical changes in [Ca^2+]i upon depolarisation were evoked by 50 mM KCl and by application of 1 μM capsaicin; both were applied for 30 sec. Capsaicin-evoked peak [Ca^2+]i transients are characterised by a fast rise and long-steady state [Ca^2+]i clearance from the cytoplasm. In capsaicin-sensitive cells the half-time of cytoplasmic Ca^2+ clearance was proportional to the amplitudes of peak [Ca^2+]i transients.
To examine the effect of gingerol derivatives, one or several compounds in succession at a concentration of 10 μM were applied for 1 min to the DRG neuronal cells followed by washing out for 4 min with physiological solution. To the capsaicin-sensitive cells, 10 μM capsaicin and 50 mM KCl were applied, respectively, to confirm the viability of the cells. In addition, morphological appearances of the cells were also examined at the end of experiment. […]

[2] = system: guinea pig atria; test: Organ bath assay, isolated guinea pig atria (rate and force of contraction)
Experimental: Male guinea pigs, 3-4 weeks old, were killed by rapid cervical dislocation without induced anaesthesia. Then, the guinea pigs were dissected to isolate the atria which were immediately mounted vertically in an organ bath containing Krebs-Henseleit solution oxygenated with carbogen.
One gram tension was applied to the atria and the base line continuously adjusted until it was stable for 20 mins. The rate and force of contraction were recorded using Mac Lab equipment.
Test substances in DMSO were assayed to a maximum concentration of 50 μM at a final concentration of 2.5% of DMSO.

[3] = system: rat mesenteric artery; test: Vasodilation on rat mesenteric artery; conditions: for potency in relaxing rat mesenteric artery / vascular bed, in words: preliminary investigation
Excerpt: The proposed mechanism of neuropeptide release by 1-(4-hydroxy-3-methoxyphenyl)dodecan-3-ol, similar to that of capsaicin, was supported by studies in blood vessels. […] This contrasts with capsaicin which has similar activity in Guinea pig atria (force and rate) and relaxing rat mesenteric artery.

[4] = system: brine shrimp (Artemia salina Leach); test: Brine shrimp assay; type: in vivo
Excerpt: Toxicity—Brine Shrimp Assay
The brine shrimp assay procedure determines LC50 values of active compounds. Activities of a broad range of known active compounds are manifested as toxicity to brine shrimp (Artemia salina Leach). There are many applications of the assay including analysis of toxic substances, anaesthetics, morphine-like substances and cocarcinogenicity of phorbol esters.
DMSO (dimethyl sulfoxide) was the solvent of choice because of its good solubilising properties and also because the substances used in the ATPase inhibition assays were already prepared with DMSO.
The method for testing solvent toxicity used was basically that reported by J L McLaughlin in Methods of Plant Biochemistry (1991), vol. 6 (K Hostettman, ed.), Academic Press, London, 1-32. DMSO solutions of the substances to be tested were added directly to the vials containing the brine shrimp. As the concentration of DMSO is that we wished to use was higher than the recommended 1% v/v testing of the toxicity of the DMSO was therefore necessary. The concentrations of DMSO tested on the shrimp, along with the results from the assay which was done in duplicate are listed below.
Brine shrimp toxicity was assayed, except for some minor modifications, according to the method of McLaughlin et al as reported in Brine Shrimp: A convenient bioassay for active plant constituents, B N Meyer, N R Ferrigni, J E Putnam, L B Jacobsen, D E Nichols and J L McLaughlin in Planta Medica (1982), 45, 31-34 and Crown gall tumours on potato discs and brine shrimp lethality: Two simple bioassays for higher plant screening and fractionation. J L McLaughlin. Methods of Plant Biochemistry (1991), vol. 6 (K Hostettman, ed.), Academic Press, London, 1-32. Ten shrimp were transferred to each of the vials and the volume adjusted to 4.9 mL. Each dose was performed in triplicate, including the control. In quick succession, the appropriate volume of additional DMSO for each dose, required to achieve a final concentration of 2%, was added before the appropriate volume of test solution. The vials were gently mixed and the time noted. After 24 hours, the number of survivors were counted and % mortality was determined. The test compounds were assayed at concentrations of 100 μM, 25 μM, 5 μM, 1 μM and 0.2 μM (and where appropriate concentrations of 0.04 μM and 0.008 μM).
The brine shrimp were able to survive without food in the vials over the 24 hour period and were therefore not fed.
The dose-response curves were constructed using the Sigmaplot computer program and the LC50 value was calculated from the intersection point of the curve and the 50% mortality line. The LC50 values were expressed in both μM and μg/mL.
For substances with low toxicity, the greater sign “>” indicated the highest concentration at which the assay was carried out as precipitation of the substances occurred above that concentration.

[5] = system: cardiac Purkinje fibres; test: Cardiac electrophysiology on Purkinje fibres; design: species or system dog; conditions: up to 10 μM
Experimental: Cardiac Electrophysiological Activities of Gingerol and its Analogue
The basic cardiac electrophysiological properties were assessed using cardiac Purkinje fibres obtained from adult mongrel dogs.
Electrophysiology was carried out on dog heart purkinje fibre to test for potential arrhythmia. […] At high concentration (50 μM), however, [8]-gingerol reduced approximate 80% and 50% of action potential duration at 50% and 90% repolarisations respectively. Whereas the analogue reduced 75% and 30% respectively.

[6] = biological target: T1, Ca^2+-ATPase of dog cardiac SR (Canis lupus familiaris, UniProt O46674); test: Sarcoplasmic reticulum Ca^2+-ATPase assay; type: biochemical; conditions: 0 μM = 100
T1 construct: SR membrane (75 μg/ml): 24 μl; from tissue; host or cells: dog cardiac sarcoplasmic reticulum membranes
T1 sequence (O46674 whole entry): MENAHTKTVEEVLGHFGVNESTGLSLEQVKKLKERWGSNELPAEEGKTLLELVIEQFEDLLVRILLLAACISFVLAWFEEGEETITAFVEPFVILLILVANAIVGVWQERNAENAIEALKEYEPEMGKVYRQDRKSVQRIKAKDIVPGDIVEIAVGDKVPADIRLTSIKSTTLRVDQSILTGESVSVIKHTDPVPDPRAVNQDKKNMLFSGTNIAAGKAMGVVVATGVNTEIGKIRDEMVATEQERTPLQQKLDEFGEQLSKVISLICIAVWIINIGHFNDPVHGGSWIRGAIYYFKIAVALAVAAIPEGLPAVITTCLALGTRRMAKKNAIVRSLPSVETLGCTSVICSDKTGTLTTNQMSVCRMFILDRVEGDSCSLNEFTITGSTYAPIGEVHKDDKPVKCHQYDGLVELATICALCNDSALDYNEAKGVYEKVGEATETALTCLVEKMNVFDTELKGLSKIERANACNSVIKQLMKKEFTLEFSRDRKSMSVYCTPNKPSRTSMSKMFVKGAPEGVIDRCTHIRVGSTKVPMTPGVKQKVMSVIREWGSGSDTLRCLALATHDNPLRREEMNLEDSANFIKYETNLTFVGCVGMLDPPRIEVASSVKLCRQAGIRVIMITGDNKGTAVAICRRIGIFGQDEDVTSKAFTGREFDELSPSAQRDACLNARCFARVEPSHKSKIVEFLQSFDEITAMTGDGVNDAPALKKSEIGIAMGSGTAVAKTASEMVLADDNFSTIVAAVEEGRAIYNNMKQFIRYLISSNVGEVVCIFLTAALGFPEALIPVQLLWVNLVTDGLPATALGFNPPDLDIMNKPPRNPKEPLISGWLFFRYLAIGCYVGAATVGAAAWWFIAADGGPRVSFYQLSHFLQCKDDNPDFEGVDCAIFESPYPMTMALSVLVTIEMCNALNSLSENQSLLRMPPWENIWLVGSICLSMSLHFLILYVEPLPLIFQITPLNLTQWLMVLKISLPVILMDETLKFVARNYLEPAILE
Experimental: A. Sarcoplasmic Reticulum Ca^2+-ATPase Assay
SR membrane (75 μg/ml): 24 μl
Test substance: appropriate volumes to give a dose-effect concentration
Incubation buffer: up to 240 μl
A portion at each concentration (54 μl) was aliquoted into 4 designated wells of the microplate (two of four wells were controls). Each well was mixed with ATP solution (20 mM, 6 μl), except the controls, using an 8 channel pipette. The controls were assayed in the absence of ATP or calcium.
The plate was incubated with the lid on, for 30 min at 37° C., colour reagent (160 μl) was then added and mixed with citrate solution (34%, 30 μl). The plate was developed at room temperature for 30 min then absorbance at 655 nm was read from the microplate reader. The Ca^2+-ATPase activity was quantitated, from a Pi standard curve, as concentration of liberated inorganic phosphate.
Stock solutions (10 mM) of test substance were prepared in DMSO, then series dilutions were made either in DMSO or in 1M HEPES to produce the dose-response concentrations. The maximum concentration of DMSO in the final assay solution was 2.5%.
Each concentration of test substance was assayed in duplicate in the presence and absence of ATP or calcium. Phosphate standards are run on each plate as follows:
Effect of gingerols and their derivatives on the Ca^2+-ATPase of dog cardiac SR.

`CCCCCCCCCC(O)C(=O)c1ccc(O)c(OC)c1` (centres unmarked) [2-hydroxy-1-(4-hydroxy-3-methoxyphenyl)undecan-1-one] showed a melting point of 78 to 80 °C.

With `COc1cc(CNC(=O)CCCC/C=C/C(C)C)ccc1O` [Capsaicin, reference compound] the “evoked [Ca^2+]i transients in Ca^2+-free medium or with ruthenium red” value ([1]; Ca^2+-free medium or ruthenium red (1 μM)) was “abolished or greatly diminished”.

In the case of `CCCCCCCC(O)CC(=O)C=Cc1ccc(O)c(OC)c1` (centres unmarked) [[8]-dehydrogingerol, 5-hydroxy-1-(4-hydroxy-3-methoxyphenyl)dodecan-1-ene-3-one, reference compound], the “time for tension to reach maximum after addition of a dose” value [2] is reported as “a few mins”.

In the case of `CCCCCCCCCC(=O)CCc1ccc(O)c(OC)c1` [[8]-paradol, 1-(4-hydroxy-3-methoxyphenyl)dodecan-3-one, reference compound], the “potency in relaxing rat mesenteric artery / vascular bed, in words” value [3] is reported as “showed potency” and the “Peak [Ca^2+]i (Average ± SD)” value [1] is reported as 200 nM.

With `CCCCCCCCC(C)(O)CCc1ccc(O)c(OC)c1` (centres unmarked) [3-methyl-1-(4-hydroxy-3-methoxyphenyl)undecan-3-ol] the “Peak [Ca^2+]i (Average ± SD)” value [1] was 0 nM.

With `CCCCCCCC(=O)CC(O)CCc1ccc(O)c(OC)c1` (centres unmarked) [3-hydroxy-1-(4-hydroxy-3-methoxyphenyl)dodecan-5-one] the “potency in relaxing rat mesenteric artery / vascular bed, in words” value [3] was “showed potency”.

For `C[S+](C)[O-]` [DMSO, dimethyl sulfoxide], the “% Deaths” value ([4]; 1 % v/v) was 0%, the “% Deaths” value ([4]; 2 % v/v) was 0% and the “% Deaths” value ([4]; 3 % v/v) was 0%. For the same compound, the “% Deaths” value ([4]; 4 % v/v) was 0%, the “% Deaths” value ([4]; 5 % v/v) was 9% and the “% Deaths” value ([4]; 7 % v/v) was 12%. The “% Deaths” value ([4]; 9 % v/v) was 18%, the “% Deaths” value ([4]; 11 % v/v) was 57% and the “% Deaths” value ([4]; 13 % v/v) was 96%. For the same compound, the “% Deaths” value ([4]; 15 % v/v) was 100%, the “% Deaths” value ([4]; 20 % v/v) was 100% and the “% Deaths” value ([4]; 25 % v/v) was 100%.

In the case of `CCCCCCCC(O)CC(=O)CCc1ccc(O)c(OC)c1` (centres unmarked) [[8]-gingerol, 5-hydroxy-1-(4-hydroxy-3-methoxyphenyl)dodecan-3-one, reference compound], the “time to increased cardiac contractility after addition of the drug” value [2] is reported as 15 s and the “effect on rate of depolarization, amplitude and duration of action potential (50% and 90%)” value [5] is reported as “insignificant effect”.

In the case of `CCCCCCCC(=O)CCCCc1ccc(O)c(OC)c1` [1-(4-hydroxy-3-methoxyphenyl)dodecan-5-one], the “SR Ca^2+-ATPase activity” value ([6]; 5 μM) is reported as 113, the “SR Ca^2+-ATPase activity” value ([6]; 10 μM) is reported as 136 and the “SR Ca^2+-ATPase activity” value ([6]; 25 μM) is reported as 158. The “SR Ca^2+-ATPase activity” value ([6]; 50 μM) was 126, the “SR Ca^2+-ATPase activity” value ([6]; 100 μM) was 87 and the “SR Ca^2+-ATPase activity” value ([6]; 200 μM) was 18.

With `CCCCCCCC(O)CCCCc1ccc(O)c(OC)c1` (centres unmarked) [1-(4-hydroxy-3-methoxyphenyl)dodecan-5-ol] the “HEART RATE (chronotropic activity), result in words” value ([2]; assayed to a maximum of 50 μM) was “↑weakly” and the “Peak [Ca^2+]i (Average ± SD)” value [1] was 0 nM.

With `CCCCCCCCCC(O)CCc1ccc(O)c(OC)c1` (single isomer, unassigned) [enantiomer-1, 1-(4-hydroxy-3-methoxyphenyl)dodecan-3-ol] the EC50 ([3]; Rattus norvegicus, arteries 200-300 μm, precontracted with endothelin, read-out: EC50, relaxation of small arteries from rat mesentery) was 500 nM.

With `C[C@H]1O[C@@H](O[C@H]2[C@@H](O)C[C@H](O[C@H]3[C@@H](O)C[C@H](O[C@H]4CC[C@@]5(C)[C@H](CC[C@@H]6[C@@H]5C[C@@H](O)[C@]5(C)[C@@H](C7=CC(=O)OC7)CC[C@]65O)C4)O[C@@H]3C)O[C@@H]2C)C[C@H](O)[C@@H]1O` [digoxin, reference compound] the “time for tension to reach maximum after addition of a dose” value [2] was “a few mins”.

For `CCCCCCCC(O)CC(=O)CCc1ccc2c(c1)OCO2` (centres unmarked) [5-hydroxy-1-(3,4-methylenedioxyphenyl)dodecan-3-one], the “potency in relaxing rat mesenteric artery / vascular bed, in words” value [3] was “showed potency”.
